Source: patent publication US20250145589A1, “PYRIDINE DERIVATIVE AND USE THEREOF” (SICHUAN HUIYU PHARMACEUTICAL CO., LTD., priority 2021, published 2025)
Like-named read-outs stand apart in the source and are kept apart here.

Legend:
[1] = system: NCI-H358 cells (KRAS G12C mutant); experiment: NCI-H358 cell proliferation inhibition (CellTiter-Glo); assay type: cell-based; settings: H358 cells (G12C mutation), 3 days, Table 6, read-out: NCI-H358 (IC50)
[2] = molecular target: PI3Kδ (Homo sapiens (Human), UniProt O00329); experiment: Inhibition of PI3Kδ efficacy assay (ADP-Glo kinase assay); assay type: biochemical; settings: read-out: PI3Kδ inhibitory activity (IC50)
Experimental: Test Example 2: Inhibition of PI3Kδ Efficacy assay The ADP-Glo™ kinase assay was used to assess the inhibition of PI3Kδ with our compounds. The utilized proteins and assay reagents were obtained from the ADP-Glo™ Kinase Assay Kit (Promega). Initially, a 2 mM stock solution of the test compound (dissolved in DMSO) was serially diluted in five-fold concentrations using DMSO to obtain eight working solutions 1 (200×) Subsequently, each of the eight working solutions 1 was further diluted in a 20-fold gradient by adding 5 μL into 95 μL of ddH2O, resulting in eight working solutions 2 (10×). […] Subsequently, 2 μL of 2.5×PI and ATP solution mixture were added to each well, mixed, and incubated at RT for 60 minutes. Then, 5 μL of ADP-Glo (containing 10 mM MgCl2) reagent was added to each well, mixed, and incubated at RT for 40 minutes. Finally, 10 μL of the Kinase Detection Reagent was added to each well, mixed, and incubated at RT for 40 minutes. Luminescence values were recorded using a multi-mode microplate reader with luminescence channel settings, and the inhibitory rate was calculated using the following formula: [formula] Data were analyzed using GraphPad Prism with log(inhibitor) vs. response—Variable Slope(four parameters) fitting calculations for IC50 values.

[3] = molecular target: PI3Kα (Homo sapiens (Human), UniProt P42336); experiment: Inhibition of PI3Kα efficacy assay (ADP-Glo kinase assay); assay type: biochemical; settings: read-out: PI3Kα inhibitory activity (IC50)
How it was run: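 Eight five-fold dilutions of compound (2 mM DMSO stock) tested; kinase reaction with PI and ATP ran 60 min at RT, followed by ADP-Glo and detection reagent steps of 40 min each. Four-parameter logistic fitting gave IC50 values.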

Sequence of PI3Kδ (O00329 whole entry): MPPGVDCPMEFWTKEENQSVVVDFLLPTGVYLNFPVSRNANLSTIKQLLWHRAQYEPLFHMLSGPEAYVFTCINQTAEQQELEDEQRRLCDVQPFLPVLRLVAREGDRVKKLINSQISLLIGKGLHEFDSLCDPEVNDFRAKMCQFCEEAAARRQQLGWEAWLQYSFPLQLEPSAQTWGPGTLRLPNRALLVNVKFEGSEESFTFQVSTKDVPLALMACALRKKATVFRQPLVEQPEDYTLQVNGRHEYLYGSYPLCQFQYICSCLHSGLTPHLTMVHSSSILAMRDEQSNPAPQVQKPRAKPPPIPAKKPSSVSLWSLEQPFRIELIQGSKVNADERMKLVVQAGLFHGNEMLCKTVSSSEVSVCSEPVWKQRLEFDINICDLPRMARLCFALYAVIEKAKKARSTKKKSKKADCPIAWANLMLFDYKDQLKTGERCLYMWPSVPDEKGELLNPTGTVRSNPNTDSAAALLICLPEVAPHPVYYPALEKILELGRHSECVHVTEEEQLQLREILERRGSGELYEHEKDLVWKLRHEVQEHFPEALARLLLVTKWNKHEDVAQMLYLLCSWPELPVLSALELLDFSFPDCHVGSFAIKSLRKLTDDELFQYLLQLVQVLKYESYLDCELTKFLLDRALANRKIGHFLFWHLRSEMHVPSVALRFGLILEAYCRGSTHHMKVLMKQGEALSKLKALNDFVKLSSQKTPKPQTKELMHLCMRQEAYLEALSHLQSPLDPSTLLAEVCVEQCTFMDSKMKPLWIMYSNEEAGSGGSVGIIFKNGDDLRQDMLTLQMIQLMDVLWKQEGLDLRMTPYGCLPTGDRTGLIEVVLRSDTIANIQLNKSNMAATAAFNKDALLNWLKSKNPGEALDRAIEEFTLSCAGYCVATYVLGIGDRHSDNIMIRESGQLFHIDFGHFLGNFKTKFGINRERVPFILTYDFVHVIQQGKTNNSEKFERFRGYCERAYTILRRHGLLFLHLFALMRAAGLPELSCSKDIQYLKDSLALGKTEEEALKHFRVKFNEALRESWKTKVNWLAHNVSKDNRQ
Sequence of PI3Kδ (P27986 whole entry partner): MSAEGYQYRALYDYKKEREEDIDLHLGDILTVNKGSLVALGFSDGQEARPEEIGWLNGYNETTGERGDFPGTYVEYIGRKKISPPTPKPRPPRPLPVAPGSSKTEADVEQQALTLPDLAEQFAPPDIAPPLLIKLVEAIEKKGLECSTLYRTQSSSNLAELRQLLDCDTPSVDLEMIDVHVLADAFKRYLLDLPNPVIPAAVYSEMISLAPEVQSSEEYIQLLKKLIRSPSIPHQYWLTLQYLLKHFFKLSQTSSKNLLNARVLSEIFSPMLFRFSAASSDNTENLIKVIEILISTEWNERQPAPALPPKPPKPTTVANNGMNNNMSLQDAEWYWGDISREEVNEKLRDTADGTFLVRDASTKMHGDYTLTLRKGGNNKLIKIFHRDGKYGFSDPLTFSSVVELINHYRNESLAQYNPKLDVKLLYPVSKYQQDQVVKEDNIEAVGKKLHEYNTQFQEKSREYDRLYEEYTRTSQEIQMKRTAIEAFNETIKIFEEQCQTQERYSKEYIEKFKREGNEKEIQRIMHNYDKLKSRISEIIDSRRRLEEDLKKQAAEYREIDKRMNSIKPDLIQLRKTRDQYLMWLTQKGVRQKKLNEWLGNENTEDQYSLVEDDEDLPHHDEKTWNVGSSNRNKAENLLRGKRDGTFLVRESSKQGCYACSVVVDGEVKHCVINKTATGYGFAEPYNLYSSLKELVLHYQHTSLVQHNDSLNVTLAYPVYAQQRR
Sequence of PI3Kα (P42336 whole entry): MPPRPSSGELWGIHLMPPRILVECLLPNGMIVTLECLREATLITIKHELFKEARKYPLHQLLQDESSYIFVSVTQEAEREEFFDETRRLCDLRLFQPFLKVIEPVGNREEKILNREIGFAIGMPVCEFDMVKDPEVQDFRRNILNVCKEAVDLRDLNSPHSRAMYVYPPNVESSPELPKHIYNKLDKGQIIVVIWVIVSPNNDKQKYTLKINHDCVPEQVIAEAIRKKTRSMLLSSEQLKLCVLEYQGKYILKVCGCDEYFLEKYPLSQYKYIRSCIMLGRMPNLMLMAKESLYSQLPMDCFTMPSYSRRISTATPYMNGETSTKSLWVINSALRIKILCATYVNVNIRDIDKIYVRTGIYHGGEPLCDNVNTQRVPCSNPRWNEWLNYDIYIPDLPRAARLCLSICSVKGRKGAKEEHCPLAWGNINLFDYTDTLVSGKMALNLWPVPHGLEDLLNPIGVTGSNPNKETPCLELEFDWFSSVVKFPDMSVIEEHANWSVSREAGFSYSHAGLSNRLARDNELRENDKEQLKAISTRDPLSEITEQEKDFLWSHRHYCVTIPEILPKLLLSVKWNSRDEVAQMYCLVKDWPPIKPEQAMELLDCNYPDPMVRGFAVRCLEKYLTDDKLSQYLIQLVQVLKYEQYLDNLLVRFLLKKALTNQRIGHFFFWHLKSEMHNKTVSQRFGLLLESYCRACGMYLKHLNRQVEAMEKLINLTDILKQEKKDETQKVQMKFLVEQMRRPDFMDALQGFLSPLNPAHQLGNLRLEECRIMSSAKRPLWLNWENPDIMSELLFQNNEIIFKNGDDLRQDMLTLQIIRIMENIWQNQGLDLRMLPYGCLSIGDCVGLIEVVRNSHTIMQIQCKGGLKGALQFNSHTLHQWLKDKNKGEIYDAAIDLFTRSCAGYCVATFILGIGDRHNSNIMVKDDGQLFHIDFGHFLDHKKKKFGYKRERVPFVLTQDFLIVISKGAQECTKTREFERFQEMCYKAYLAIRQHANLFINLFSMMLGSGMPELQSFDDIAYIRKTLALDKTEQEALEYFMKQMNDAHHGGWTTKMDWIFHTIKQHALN
Sequence of PI3Kα (P27986 whole entry partner): as the sequence (P27986 whole entry partner) above

IC50 ([1]; Homo sapiens, NCI-H358, 72 h) | IC50 ([2]; Table 2) | IC50 ([3]; Table 2) | IC50 ([2]; Table 1) | IC50 ([3]; Table 1) | Structure (SMILES) | IC50 [1]
75 nM | 31.5 nM | 2.1 nM |  |  | COc1ncc(-c2ccc3ncnc(N4CCC5(CC=CC5=O)CC4)c3c2)cc1NS(=O)(=O)c1c(F)cccc1F [Example 71, 2,6-difluoro-N-(2-methoxy-5-(4-(1-oxo-8-azaspiro[4,5]dec-2-en-8-yl)quinazolin-6-yl)pyridin-3-yl)benzenesulfonamide] | 
34.6 nM | 28.5 nM | 1.4 nM |  |  | C=CC(=O)N1CCN(c2ncnc3ccc(-c4cnc(OC)c(NS(=O)(=O)c5ccc(F)cc5F)c4)cc23)C[C@@H]1CC#N [Example 114, (S)-N-(5-(4-(4-acryloyl-3-(cyanomethyl)piperazin-1-yl)quinazolin-6-yl)-2-methoxypyridin-3-yl)-2,4-difluorobenzenesulfonamide] | 
58 nM | 11.5 nM | 2.9 nM |  |  | C=C(F)C(=O)N1CCN(c2ncnc3ccc(-c4cnc(OC)c(NS(=O)(=O)c5ccc(F)cc5F)c4)cc23)C[C@@H]1CC#N [Example 113, (S)-N-(5-(4-(3-(cyanomethyl)-4-(2-fluoroacryloyl)piperazin-1-yl)quinazolin-6-yl)-2-methoxypyridin-3-yl)-2,4-difluorobenzenesulfonamide] | 
350 nM |  |  | 9.05 nM | 0.56 nM | C=C(F)C(=O)N1CCN(c2ncnc3ccc(-c4cnc(OC)c(NS(=O)(=O)c5ccc(F)cc5F)c4)cc23)[C@@H](C)C1 [Example 9, (S)-2,4-difluoro-N-(5-(4-(4-(2-fluoroacryloyl)-2-methylpiperazin-1-yl)quinazolin-6-yl)-2-methoxypyridin-3-yl)benzenesulfonamide] | 
26.5 nM | 23.2 nM | 1.8 nM |  |  | COc1ncc(-c2ccc3ncnc(N4CCN(C(=O)C5=CC(=O)CC5)CC4)c3c2)cc1NS(=O)(=O)c1ccc(F)cc1F [Example 74, 2,4-difluoro-N-(2-methoxy-5-(4-(4-(3-oxocyclopent-1-ene-1-carbonyl)piperazin-1-yl)quinazolin-6-yl)pyridin-3-yl)benzenesulfonamide] | 
4290 nM |  |  | 10.1 nM | 7.6 nM | C=CC(=O)N1CCN(c2ncnc3c2CN(c2cnc(OC)c(NS(=O)(=O)c4ccc(F)cc4F)c2)CC3)CC1 [Example 41, N-(5-(4-(4-acryloylpiperazin-1-yl)-7,8-dihydropyrido[4,3-d]pyrimidin-6 (5H)-yl)-2-methoxypyridin-3-yl)-2,4-difluorobenzenesulfonamide] | 
22.2 nM | 31.7 nM | 1.9 nM |  |  | COc1ncc(-c2ccc3ncnc(N4CCN(C(=O)C5OC5C(C)=O)CC4)c3c2)cc1NS(=O)(=O)c1ccc(F)cc1F (stereo not drawn) [Example 127, N-(5-(4-(4-(3-acetyloxirane-2-carbonyl)piperazin-1-yl)quinazolin-6-yl)-2-methoxypyridin-3-yl)-2,4-difluorobenzenesulfonamide] | 
50.6 nM |  |  | 77.4 nM | 9.3 nM | C=CC(=O)N1CC2(CCN(c3ncnc4ccc(-c5cnc(OC)c(NS(=O)(=O)c6ccc(F)cc6F)c5)cc34)C2)C1 [Example 12, N-(5-(4-(2-acryloyl-2,6-diazaspiro[3.4]octan-6-yl)quinazolin-6-yl)-2-methoxypyridin-3-yl)-2,4-difluorobenzenesulfonamide] | 
164 nM | 38.6 nM | 2.8 nM |  |  | C=C(F)C(=O)N1CCN(c2ncnc3ccc(-c4cnc(OC)c(NS(=O)(=O)c5c(F)cccc5F)c4)cc23)[C@@H](C)C1 [Example 45, (S)-2,6-difluoro-N-(5-(4-(4-(2-fluoroacryloyl)-2-methylpiperazin-1-yl)quinazolin-6-yl)-2-methoxypyridin-3-yl) benzenesulfonamide] | 
25.1 nM | 53 nM | 3.9 nM |  |  | C=C(COC)C(=O)N1CCN(c2ncnc3ccc(-c4cnc(OC)c(NS(=O)(=O)c5ccc(F)cc5F)c4)cc23)CC1 [Example 65, 2,4-difluoro-N-(2-methoxy-5-(4-(4-(2-(methoxy-methyl)acryloyl)piperazin-1-yl)quinazolin-6-yl)pyridin-3-yl) benzene-sulfonamide] | 
22 nM |  |  | 57.8 nM | 4.7 nM | C=C(F)C(=O)N1CC2(CCN(c3ncnc4ccc(-c5cnc(OC)c(NS(=O)(=O)c6ccc(F)cc6F)c5)cc34)CC2)C1 [Example 19, 2,4-difluoro-N-(5-(4-(2-(2-fluoroacryloyl)-2,7-diazaspiro[3.5]nonan-7-yl)quinazolin-6-yl)-2-methoxypyridin-3-yl)benzenesulfonamide] | 
900 nM |  |  | 117 nM | 5.8 nM | C=CC(=O)N1CCN(c2ncnc3ccc(-c4cnc(Cl)c(NS(=O)(=O)c5ccc(Cl)s5)c4)cc23)CC1 [Example 35, N-(5-(4-(4-acryloylpiperazin-1-yl)quinazolin-6-yl)-2-chloropyridin-3-yl)-5-chlorothiophene-2-sulfonamide] | 
288 nM |  |  | 127 nM | 26.9 nM | C=CC(=O)N1CCN(c2ncnc3ccc(-c4cnc(OC)c(NS(=O)(=O)C5CCCCC5)c4)cc23)CC1 [Example 25, N-(5-(4-(4-acryloylpiperazin-1-yl)quinazolin-6-yl)-2-methoxypyridin-3-yl)cyclohexanesulfonamide] | 
27.9 nM | 12.9 nM | 2.5 nM |  |  | C=C(F)C(=O)N1CCN(c2ncnc3ccc(-c4cnc(OC)c(NS(=O)(=O)c5c(F)cccc5F)c4)cc23)CC1 [Example 43, 2,6-difluoro-N-(5-(4-(4-(2-fluoroacryloyl)piperazin-1-yl)quinazolin-6-yl)-2-methoxypyridin-3-yl) benzenesulfonamide] | 
142 nM |  |  | 265 nM | 44.6 nM | COc1ncc(-c2ccc3ncnc(N4CCN(C(=O)/C=C/C(C)=O)CC4)c3c2)cc1NS(=O)(=O)C1CCCCC1 [Example 26, (E)-N-(2-methoxy-5-(4-(4-(4-oxopent-2-enoyl)piperazin-1-yl)quinazolin-6-yl)pyridin-3-yl)cyclohexanesulfonamide] | 
233 nM |  |  | 62.1 nM | 9.5 nM | C=CC(=O)N1C[C@H](C)N(c2ncnc3ccc(-c4cnc(OC)c(NS(=O)(=O)c5ccc(F)cc5F)c4)cc23)C[C@H]1C [Example 14, N-(5-(4-((2S,5R)-4-acryloyl-2,5-dimethylpiperazin-1-yl)quinazolin-6-yl)-2-methoxypyridin-3-yl)-2,4-difluorobenzenesulfonamide] | 

Structure (SMILES) | IC50 ([1]; Homo sapiens, NCI-H358, 72 h) | IC50 ([2]; Table 2) | IC50 ([3]; Table 2) | IC50 ([2]; Table 1) | IC50 ([3]; Table 1) | IC50 [1]
C=C1CCN(C2CN(c3ncnc4ccc(-c5cnc(OC)c(NS(=O)(=O)c6ccc(F)cc6F)c5)cc34)C2)C1=O [Example 125] |  | 17 nM | 5 nM |  |  | 97.2 nM
COc1ncc(-c2ccc3ncnc(N4CCN(C(=O)/C=C/C(C)=O)CC4)c3c2)cc1NS(=O)(=O)c1ccc(F)cn1 [Example 118, (E)-5-fluoro-N-(2-methoxy-5-(4-(4-(4-oxopent-2-enoyl)piperazin-1-yl)quinazolin-6-yl)pyridin-3-yl)pyridine-2-sulfonamide] | 79.2 nM | 19.7 nM | 1.9 nM |  |  | 
C=CC(=O)N1CCN(c2ncnc3ccc(-c4cnc(OC)c(NS(=O)(=O)c5ccccc5)c4)cc23)CC1 [Example 24, N-(5 (4-(4-acryloylpiperazin-1-yl)quinazolin-6-yl)-2-methoxypyridin-3-yl)benzenesulfonamide] | 123 nM |  |  | 6.3 nM | 2.9 nM | 
